# Article PMC11491346, “Molecular insights and inhibitory dynamics of flavonoids in targeting Pim-1 kinase for cancer therapy” (Frontiers in Pharmacology, 2024)
# Target: Pim-1 kinase (Homo sapiens, UniProt P11309)
# Experiment: luminescence-based kinase assay (ADP to ATP, Ultra-Glo Luciferase), Pim-1 assay
# Type: biochemical
# Conditions: Figures 10, 11 and 13
# Description: Enzyme activity was quantified using a luminescence-based kinase assay, which tracks the conversion of ADP to ATP, subsequently producing light via Ultra-Glo™ Luciferase. This luminescence is indicative of ADP levels and thus, enzyme activity. This method is particularly effective for analyzing the influence of various chemicals on different kinases, serving both initial screenings and specificity profiling.
# The inhibitory concentration (IC50) values, expressed in micromolar (μM), were obtained from the Pim-1 assay. These values were converted to their corresponding negative logarithmic scale (pIC50) to facilitate a linear comparison using the following formula: pIC50=−log10 IC50 in M Where IC50 values were first converted from μM to molar (M) units before logarithmic transformation. Pulling force values, measured in pN, were sourced from the SMD experiments.
# Sequence of Pim-1 kinase (P11309 whole entry): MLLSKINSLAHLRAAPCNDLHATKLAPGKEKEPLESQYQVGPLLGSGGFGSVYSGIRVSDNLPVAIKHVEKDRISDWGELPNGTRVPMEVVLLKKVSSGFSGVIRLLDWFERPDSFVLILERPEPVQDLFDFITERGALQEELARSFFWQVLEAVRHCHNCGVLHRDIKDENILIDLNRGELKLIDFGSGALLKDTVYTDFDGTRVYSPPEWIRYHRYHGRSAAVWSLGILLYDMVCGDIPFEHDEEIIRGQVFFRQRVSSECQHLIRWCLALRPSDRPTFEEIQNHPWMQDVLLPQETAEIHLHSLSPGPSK
row,SMILES,class as Pim-1 kinase inhibitor (in words)
1,O=c1cc(-c2ccccc2)oc2ccc(O)cc12 [6-Hydroxyflavone],could not inhibit Pim-1 kinase activity
2,O=c1cc(-c2ccccc2)oc2cccc(O)c12 [5-Hydroxyflavone],could not inhibit Pim-1 kinase activity

# Same assay, conditions: Figures 10, 11 and 13; listed as 7-ydroxyflavone
row,SMILES,class as Pim-1 kinase inhibitor (in words)
1,O=c1cc(-c2ccccc2)oc2cc(O)ccc12 [7-Hydroxyflavone],could not inhibit Pim-1 kinase activity

# Same assay, conditions: in vitro enzyme inhibition; read-out: Pim-1 kinase inhibitory activity IC50
row,SMILES,IC50 [µM]
1,"O=c1c(O)c(-c2ccccc2)oc2ccccc12 [Compound 4, 3-Hydroxyflavone]",35.1
2,O=c1cc(-c2ccccc2)oc2cc(O)cc(O)c12 [Compound 6],5.33
3,O=c1cc(-c2ccccc2)oc2cc(O)c(O)c(O)c12 [Compound 7],5.65
4,O=c1cc(-c2ccc(O)cc2)oc2cc(O)cc(O)c12 [Compound 10],5.28
5,"O=c1c(O)c(-c2ccc(O)cc2)oc2cc(O)cc(O)c12 [Compound 9, Kaempferol]",1.78
6,O=c1cc(-c2ccc(O)c(O)c2)oc2cc(O)cc(O)c12 [Compound 11],4.63
7,"O=c1c(O)c(-c2ccccc2)oc2cc(O)cc(O)c12 [Compound 8, Galangin]",1.81
